Experimental data published in patent US20230066882A1, “Stable Reporter Flavivirus” (priority 2021, published 2023).

Tested on: panel of stable reporter viruses (DENV1, DENV2, DENV3, DENV4, ZIKV, YFV, JEV)
Type: cell-based

SMILES: C#C[C@@]1(O)[C@H](O)[C@@H](CO)O[C@H]1n1ccc2c(N)ncnc21 [NITD008]
- EC50 values: potent
- luciferase expression compared to control: decreased luciferase expression
